Results from US4312861A, “Pharmaceutical compositions containing N-alkyl-N-(nuclearly-substituted) benzylamines having vasotonia-regulating activity” (Hoechst Aktiengesellschaft, priority 1974, dated 1982).
Structures can show the parent of a compound that is named as a salt.

Tests used:
[1] = test system: perfused rabbit ear; assay: Blood-flow change in perfused isolated rabbit ear, vaso-dilator activity (Ringer-Norfenefrin solution)
Protocol: (3) Blood-flow change in an isolated rabbit ear
The tests were carried out according to Krakow-Pissemski (Pflugers Archiv 151 (1913), page 583 and 156 (1914), page 426). In Table 5a the estimated values of the vaso-constrictor activity in Ringer solutions of varying concentrations are given and in Table 5b values for vasodilatory activity in Ringer-Norfenefrin solutions of varying concentrations are given. As a comparison, the values obtained with the known preparation aescin sodium are given.

[2] = test system: isolated portal vein; assay: Isolated rat's portal vein (Berti), increase in tonus
Protocol: (2) Isolated rat's portal vein
The tests on the rat's portal vein, an organ with its own rhythm, were performed according to the method of Berti et al (Arch. int. Pharmacodyn. 184 (1970), page 328). In Table 4, the increase in tonus at various adrenalin concentrations is given in milligrams. As a comparison, the values for the known substance heptaminol (=6-amino-2-methylheptane-2-ol) are also given.

[3] = test system: isolated aorta sections; assay: Isolated aorta section (modified Furchgott), contraction in noradrenalin; design: species or system rabbit; conditions: in words
Protocol: (§1) (1) Isolated vein and aorta sections
(§2) The tests were carried out on isolated vein and aorta sections from rabbits in accordance with the modified method of Furchgott et al (J. Pharmacol, exp. Ther. 108 (1953), page 129). The contraction of the vein section in adrenalin and of the aorta section in noradrenalin, after administration of 10^-6 g/ml of the test compound was defined to have the base value of 100.

[4] = Toxicity in the mouse (Litchfield and Wilcoxon); type: in vivo; conditions: mouse, in vivo
Protocol: (§3) (6) Toxicity in the mouse
(§4) Toxicity was determined according to Litchfield and Wilcoxon (J. Pharmacol. exp. Ther. 97 (1949), page 399) in the mouse. In comparison, the values with the known substance aescin sodium salt were determined. Comparative tests with 0.1% solution, of venous and optical compatibility on the rabbit yielded similar results.

[5] = test system: permeability of the capillaries; assay: Histamine rash test (modified Halpern), capillary permeability; type: in vivo; conditions: 30 minutes before histamine
Protocol: The test according to Halpern (Presse medicale 65 (1949), page 949) was used in modified form. The suppressive effect of the compounds according to the invention on the permeability of the capillaries was tested. The blue coloration induced by intravenous administration of trypan blue at two intracutaneous histamine injection points per animal, (trypan blue administered 2 minutes before the histamine), was estimated according to the following scale of values:
indications of blue coloration
clear blue coloration =4
stong blue coloration =6
The preceding evaluation was made from the combined effect at the two injection points.
The test substances were administered i.p. 30 minutes before the histamine injection.

[6] = test system: mouse; assay: Toxicity in the mouse (Litchfield and Wilcoxon); type: in vivo
Protocol: as §3, §4

[7] = test system: isolated guinea-pig heart; assay: Relative coronary blood-flow change in isolated guinea-pig heart (Langendorff)
Protocol: (4) Relative coronary blood-flow change in an isolated guinea-pig heart.
The tests were carried out according to the method of Langendorff (Pflugers Archiv. 61 (1895), page 219).
In Table 5, the change in coronary blood flow after administration of various quantities of the test substance is compared with that after administration of the known compounds heptaminol and Aescin sodium salt.

[8] = test system: carrageenin oedema in the rat paw; assay: Suppression of carrageenin oedema in the rat paw (Siegmund); type: in vivo; conditions: 3 h p.a.
Protocol: (7) Suppression of carrageenin oedema in the rat paw
The inflammation-reducing and anti-oedematous effects on carrageenin and serotonin oedemas in the rat paw were studied according to Siegmund et al (Proc. Soc. exp. Biol. Med. 95 (1957), page 729). The values are given as percentages, based on the values obtained in control tests using a dummy procedure. In this way, the antiphlogistic activity of the substances according to the invention was tested.

[9] = test system: writhing movements in the mouse; assay: Writhing test (Winter); type: in vivo
Description: The analgesic activity of the compounds according to the invention were studied by the method of Winter et al (Proc. Soc. exp. Biol. Med, 111 (1962), page 544), in which the suppression of writhing movements in the mouse was observed.

[10] = test system: isolated vein sections; assay: Isolated vein section (modified Furchgott), contraction in adrenalin; design: species or system rabbit; conditions: in words
Protocol: as §1, §2

[11] = test system: mouse; assay: Hot-plate test (Chen and Beckman); type: in vivo
Protocol: This test was performed on the mouse, according to Chen and Beckman (see Science 113 (1951), page 631). 50 mg/kg of the compound No. 2 (cf. formula sheet) which has been administered per os increase the reaction time of the animals by 70%.

[12] = 100 μg (first figure where two are given)

Structure (SMILES) | Relative change in blood flow, vaso-dilator activity ([1]; 3 × 10^-5 g/ml) | Relative change in blood flow, vaso-dilator activity ([1]; 10^-6 g/ml) | Increase in tonus, isolated rat's portal vein ([2]; 10^-4 g/ml) | Increase in tonus, isolated rat's portal vein ([2]; 10^-5 g/ml) | LD50 ([4]; ip) | LD50 ([4]; po) | Histamine rash test, blue coloration score (0 = none, 2 = indications, 4 = clear, 6 = strong) ([5]; 1.0 mg/kg i.p.) | Histamine rash test, blue coloration score (0 = none, 2 = indications, 4 = clear, 6 = strong) ([5]; 3.0 mg/kg i.p.) | Relative change in blood flow, vaso-dilator activity ([1]; 10^-5 g/ml) | Relative change in blood flow, vaso-dilator activity ([1]; 10^-7 g/ml) | Relative change in coronary blood flow [7, 12] | Suppression of carrageenin oedema in the paw (antiphlogistic activity) ([8]; 100 mg/kg p.o.) | Suppression of writhing movements ([9]; 50 mg/kg p.o.) | further results
CCC(C)C(C)NCc1c(C)cc(C)cc1C (stereo not shown) [Serial No. 27] | +12 | +4 | +250 milligrams | +19 milligrams | 100 to 250 mg/kg | 2400 mg/kg | 3.6 | 1.9 |  |  |  |  |  | Increase in tonus, isolated rat's portal vein ([2]; 10^-6 g/ml): -9 milligrams; Vasotonic activity compared with aescin sodium (aorta, Table 3) [3]: stronger vasotonic activity than the comparison substance aescin sodium
CCCCCC(C)NCc1c(C)cc(C)cc1C (single isomer, unassigned) [compound 4] | +31 | +40 |  |  |  |  | 3.1 | 1.7 | +104 | +4 | +125 | 14% |  | Toxicity in the mouse ([6]; i.p.): 50 to 100 mg/kg; Toxicity in the mouse ([6]; i.v.): 12,4 mg/kg
CCCCCCC(C)NCc1c(C)cc(C)cc1C (stereo not shown) [Serial No. 26] |  | +29 |  |  | 50 to 100 mg/kg |  | 1.8 | 1.2 | +58 | +7 |  | 39% | 45% | Vasotonic activity compared with aescin sodium (vein, Table 2) [10]: stronger vasotonic activity than the comparison substance aescin sodium; Relative change in coronary blood flow ([7]; 10 μg (first figure where two are given)): +28; Relative change in coronary blood flow ([7]; 30 μg (first figure where two are given)): +57
Cc1c(N(C)C)c(=O)n(-c2ccccc2)n1C [aminophenazone, reference compound] |  |  |  |  |  |  |  |  |  |  |  |  |  | ED50 ([11]; Mus musculus, comparison substance, read-out: Effective dose of 50% (ED 50), hot-plate test): 84 mg/kg
CCCCCC(C)NCc1c(C)cc(C)cc1C (stereo not shown) [Serial No. 2, 2-(2,4,6-Trimethylbenzyl)-aminoheptane hydrochloride] |  | +31 | +185 milligrams | +106 milligrams | 114 mg/kg | 940 mg/kg | 2.6 | 1.7 | +73 | +3 | +120 | 46% | 53% | Suppression of writhing movements ([9]; 40 mg/kg p.o.): 32%; Suppression of writhing movements ([9]; 63 mg/kg p.o.): 51%; Suppression of writhing movements ([9]; 100 mg/kg p.o.): 80%; Relative change in blood flow, vaso-dilator activity ([1]; 10^-4 g/ml): +112; Increase in reaction time of the animals ([11]; 50 mg/kg per os): 70%; LD50 ([4]; iv): 11.7 mg/kg; Histamine rash test, blue coloration score (0 = none, 2 = indications, 4 = clear, 6 = strong) ([5]; 0.1 mg/kg i.p.): 3.5; Histamine rash test, blue coloration score (0 = none, 2 = indications, 4 = clear, 6 = strong) ([5]; 0.3 mg/kg i.p.): 3.4; Histamine rash test, blue coloration score (0 = none, 2 = indications, 4 = clear, 6 = strong) ([5]; 10.0 mg/kg i.p.): 1.9; Suppression of carrageenin oedema in the paw (antiphlogistic activity) ([8]; 25 mg/kg p.o.): 53%; Suppression of carrageenin oedema in the paw (antiphlogistic activity) ([8]; 63 mg/kg p.o.): 52%
